Legend:
[1] = tested on: biomarkers Bscl2-GFP and Rtkn-GFP in mES reporter cell lines; assay: ToxTracker assay, overall genotoxicity conclusion; type: cell-based, mouse; settings: Bscl2-GFP and Rtkn-GFP at 10, 25 and 50% cytotoxicity, absence and presence of rat S9
Description: (§1) This methodology uses a two step-approach.
(§2) Metabolic was evaluated by addition of S9 liver extract. […] Only GFP expression in intact single cells is determined.

[2] = tested on: Bscl2-GFP mouse embryonic stem (mES) reporter cell line; assay: ToxTracker assay, Bscl2-GFP DNA damage reporter; type: cell-based
Description: as §1, §2

[3] = tested on: Rtkn-GFP mouse embryonic stem (mES) reporter cell line; assay: ToxTracker assay, Rtkn-GFP DNA damage reporter; type: cell-based
Description: as §1, §2

[4] = with S9 rat liver extract, at 10% cytotoxicity, 3 h exposure, 24 h recovery
[5] = with S9 rat liver extract, at 25% cytotoxicity, 3 h exposure, 24 h recovery
[6] = with S9 rat liver extract, at 50% cytotoxicity, 3 h exposure, 24 h recovery
[7] = without S9 rat liver extract, at 10% cytotoxicity, 24 h exposure
[8] = without S9 rat liver extract, at 25% cytotoxicity, 24 h exposure
[9] = without S9 rat liver extract, at 50% cytotoxicity, 24 h exposure

## C=CC(=O)OCCOC(=O)NCCCCCCn1c(=O)n(CCCCCCNC(=O)OCCOC(=O)C=C)c(=O)n(CCCCCCNC(=O)OC(C)CN2CC2C)c1=O (stereo not shown) [Compound 1]
[1]
  Genotoxicity conclusion (ToxTracker): non-genotoxic
[2]; [4]
  Bscl 2 GFP reporter induction level: 1.2 fold
[2]; [5]
  Bscl 2 GFP reporter induction level: 1.2 fold
[2]; [6]
  Bscl 2 GFP reporter induction level: 1.2 fold
[2]; [7]
  Bscl 2 GFP reporter induction level: 1.0 fold
[2]; [8]
  Bscl 2 GFP reporter induction level: 1.2 fold
[2]; [9]
  Bscl 2 GFP reporter induction level: 1.3 fold
[3]; [4]
  Rtkn GFP reporter induction level: 1.0 fold
[3]; [5]
  Rtkn GFP reporter induction level: 1.0 fold
[3]; [6]
  Rtkn GFP reporter induction level: 1.0 fold
[3]; [7]
  Rtkn GFP reporter induction level: 1.0 fold
[3]; [8]
  Rtkn GFP reporter induction level: 1.0 fold
[3]; [9]
  Rtkn GFP reporter induction level: 1.0 fold
